Biological target: T1, human Fatty Acid Synthase (Homo sapiens, UniProt P49327)
T1 construct: made in house
Assay: Human FAS enzyme assay (decrease in NADPH fluorescence)
Assay type: biochemical
Conditions: for inhibition at 100 µM: % inhibition at a concentration of 100 micromolar; for IC50s in the range of about 0.001 μM to about 30 μM: compounds excluded from the claims by proviso
Method in brief: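 In-house human FAS (0.4 μg) was preincubated 15 min at RT with compound and NADPH (added at 166.6 μM) in 0.1 M Tris pH 7.5, 1 mM glutathione, 0.05% BSA. Malonyl-/acetyl-CoA (500/150 μM in substrate mix) was then added for 60 min. Readout was NADPH fluorescence loss (ex 340/em 460) over a time-zero read, with IC50 from a sigmoid fit.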

T1 sequence (P49327 whole entry): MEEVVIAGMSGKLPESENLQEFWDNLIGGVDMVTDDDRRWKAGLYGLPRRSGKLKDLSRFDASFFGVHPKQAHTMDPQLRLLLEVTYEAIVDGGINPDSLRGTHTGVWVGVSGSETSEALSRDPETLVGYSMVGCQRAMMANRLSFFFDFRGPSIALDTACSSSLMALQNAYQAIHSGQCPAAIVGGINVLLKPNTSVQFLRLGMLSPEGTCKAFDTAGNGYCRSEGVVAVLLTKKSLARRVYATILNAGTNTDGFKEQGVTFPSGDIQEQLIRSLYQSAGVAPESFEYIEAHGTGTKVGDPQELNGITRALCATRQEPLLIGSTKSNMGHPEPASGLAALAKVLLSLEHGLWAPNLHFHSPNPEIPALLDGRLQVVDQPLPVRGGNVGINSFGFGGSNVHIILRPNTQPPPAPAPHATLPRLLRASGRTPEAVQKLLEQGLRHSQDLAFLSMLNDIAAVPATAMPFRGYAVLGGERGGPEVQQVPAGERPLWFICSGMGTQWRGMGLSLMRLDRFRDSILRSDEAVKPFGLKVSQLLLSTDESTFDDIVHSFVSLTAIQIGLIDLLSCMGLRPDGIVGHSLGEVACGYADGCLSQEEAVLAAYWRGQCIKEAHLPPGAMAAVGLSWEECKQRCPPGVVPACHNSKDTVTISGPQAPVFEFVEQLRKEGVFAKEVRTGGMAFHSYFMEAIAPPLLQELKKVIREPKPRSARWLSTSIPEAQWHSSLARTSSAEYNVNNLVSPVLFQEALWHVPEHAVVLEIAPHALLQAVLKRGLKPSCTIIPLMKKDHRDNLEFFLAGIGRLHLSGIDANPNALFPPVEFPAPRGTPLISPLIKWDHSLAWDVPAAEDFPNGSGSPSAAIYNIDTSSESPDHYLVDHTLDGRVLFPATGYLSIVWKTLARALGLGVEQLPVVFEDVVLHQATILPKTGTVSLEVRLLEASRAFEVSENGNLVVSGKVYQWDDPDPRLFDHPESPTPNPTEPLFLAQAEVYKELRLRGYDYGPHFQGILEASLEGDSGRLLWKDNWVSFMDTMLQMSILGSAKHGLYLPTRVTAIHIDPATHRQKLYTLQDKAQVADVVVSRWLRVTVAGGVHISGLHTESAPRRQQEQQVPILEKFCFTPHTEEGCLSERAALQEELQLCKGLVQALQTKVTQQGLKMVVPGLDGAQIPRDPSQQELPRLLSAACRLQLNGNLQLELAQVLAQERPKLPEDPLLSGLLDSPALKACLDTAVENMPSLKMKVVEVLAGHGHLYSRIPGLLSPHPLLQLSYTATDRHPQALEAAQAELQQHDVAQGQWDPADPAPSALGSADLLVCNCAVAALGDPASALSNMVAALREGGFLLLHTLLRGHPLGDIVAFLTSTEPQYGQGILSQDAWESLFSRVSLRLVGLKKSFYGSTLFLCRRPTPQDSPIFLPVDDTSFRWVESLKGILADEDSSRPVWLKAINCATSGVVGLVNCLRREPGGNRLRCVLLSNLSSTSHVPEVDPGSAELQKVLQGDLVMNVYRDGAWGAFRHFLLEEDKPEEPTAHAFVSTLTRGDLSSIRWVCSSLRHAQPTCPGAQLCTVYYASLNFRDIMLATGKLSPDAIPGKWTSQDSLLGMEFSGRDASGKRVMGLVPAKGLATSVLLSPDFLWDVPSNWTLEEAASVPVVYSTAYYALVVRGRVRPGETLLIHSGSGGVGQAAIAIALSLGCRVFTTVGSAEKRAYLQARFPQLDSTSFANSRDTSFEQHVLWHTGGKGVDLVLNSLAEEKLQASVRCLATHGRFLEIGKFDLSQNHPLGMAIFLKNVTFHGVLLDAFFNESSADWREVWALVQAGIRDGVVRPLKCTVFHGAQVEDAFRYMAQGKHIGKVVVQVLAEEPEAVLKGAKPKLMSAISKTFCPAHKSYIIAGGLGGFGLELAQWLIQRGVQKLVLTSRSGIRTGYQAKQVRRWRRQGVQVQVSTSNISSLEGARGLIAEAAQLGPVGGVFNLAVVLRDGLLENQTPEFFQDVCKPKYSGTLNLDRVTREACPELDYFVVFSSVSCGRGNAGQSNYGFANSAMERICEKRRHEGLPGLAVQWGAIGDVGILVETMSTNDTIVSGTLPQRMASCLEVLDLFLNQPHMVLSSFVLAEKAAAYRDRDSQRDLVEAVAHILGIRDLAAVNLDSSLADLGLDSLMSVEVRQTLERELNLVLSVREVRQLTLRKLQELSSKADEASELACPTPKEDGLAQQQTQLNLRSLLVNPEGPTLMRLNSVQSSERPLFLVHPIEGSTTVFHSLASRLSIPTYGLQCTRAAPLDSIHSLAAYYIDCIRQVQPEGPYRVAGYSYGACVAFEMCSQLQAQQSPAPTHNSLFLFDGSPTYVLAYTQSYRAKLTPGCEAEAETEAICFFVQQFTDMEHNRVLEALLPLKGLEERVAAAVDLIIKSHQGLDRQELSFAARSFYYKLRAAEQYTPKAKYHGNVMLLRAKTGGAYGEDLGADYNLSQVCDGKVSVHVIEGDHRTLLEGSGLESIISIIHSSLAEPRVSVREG

Row | SMILES | inhibition at 100 µM [%] | also measured
1 | Cc1nc(C)c(S(=O)(=O)Nc2cc(C(=O)N3CCC(c4ccc(C#N)cc4)CC3)ccc2C)s1 [Example 106, N-[5-[4-(4-cyanophenyl)piperidine-1-carbonyl]-2-methyl-phenyl]-2,4-dimethyl-1,3-thiazole-5-sulfonamide] | 95 | –
2 | Cc1ccc(NS(=O)(=O)C2CCS(=O)(=O)C2)cc1C(=O)N1CCC(c2ccc(C#N)cc2)CC1 (stereo not shown) [Example 69, N-[3-[4-(4-cyanophenyl)piperidine-1-carbonyl]-4-methyl-phenyl]-1,1-dioxo-thiolane-3-sulfonamide] | 82 | –
3 | Cc1ccc(C(=O)N2CCC(c3cc(F)c(C#N)c(F)c3)CC2)cc1NS(C)(=O)=O [N-[5-[4-(4-cyano-3,5-difluorophenyl)piperidine-1-carbonyl]-2-methylphenyl]methanesulfonamide] | – | IC50s in the range of about 0.001 μM to about 30 μM: do not have IC50s in the range of about 0.001 μM to about 30 μM
4 | Cc1ccc(C(=O)N2CCC(c3ccc(C#N)cc3)CC2)cc1NS(=O)(=O)CCCNCc1cccnc1 [Example 141, N-[5-[4-(4-cyanophenyl)piperidine-1-carbonyl]-2-methyl-phenyl]-3-(pyridin-3-ylmethylamino)propane-1-sulfonamide] | 93 | –
5 | Cc1ccc(C(=O)N2CCC(c3ccc(S(C)(=O)=O)cc3)CC2)cc1NS(C)(=O)=O [Example 68, N-[2-methyl-5-[4-(4-methylsulfonylphenyl)piperidine-1-carbonyl]phenyl]methanesulfonamide] | 74 | –
6 | Cc1ccc(C(=O)N2CCC(c3ccc(C#N)cc3)CC2)cc1NS(=O)(=O)C(F)(F)F [Example 209, N-[5-[4-(4-cyanophenyl)piperidine-1-carbonyl]-2-methylphenyl]-1,1,1-trifluoromethane-sulfonamide] | 76 | –
7 | COCCOc1ccc(C2CCN(C(=O)c3ccc(C)c(NS(C)(=O)=O)c3)CC2)cc1 [Example 219, N-[5-[4-[4-(2-methoxyethoxy)phenyl]piperidine-1-carbonyl]-2-methylphenyl]methane-sulfonamide] | 87 | –
8 | C[S+]([O-])c1ccc(C(=O)N2CCC(c3ccc(C#N)cc3)CC2)cc1NS(=O)(=O)Cc1ccccc1 (stereo not shown) [Example 211, N-[5-[4-(4-cyanophenyl)piperidine-1-carbonyl]-2-methylsulfinylphenyl]-1-phenylmethanesulfonamide] | 92 | –
9 | Cc1ccc(C(=O)N2CCC(c3ccc(C#N)cc3)CC2)cc1NS(=O)(=O)CCCN(C)C [Example 74, N-[5-[4-(4-cyanophenyl)piperidine-1-carbonyl]-2-methyl-phenyl]-3-dimethylamino-propane-1-sulfonamide] | 95 | –
10 | N#Cc1ccc(C2CCN(C(=O)c3ccc(OC(F)(F)F)c(NS(=O)(=O)Cc4ccccc4)c3)CC2)cc1 [N-[5-[4-(4-cyanophenyl)piperidine-1-carbonyl]-2-(trifluoromethoxy)phenyl]-1-phenylmethanesulfonamide] | – | IC50s in the range of about 0.001 μM to about 30 μM: do not have IC50s in the range of about 0.001 μM to about 30 μM
11 | Cc1ccc(C(=O)N2CCC(c3ccc(C(=O)N4CCCN(C)CC4)cc3)CC2)cc1NS(C)(=O)=O [N-[2-methyl-5-[4-[4-(4-methyl1,4-diazepane-1-carbonyl)phenyl]piperidine-1-carbonyl]phenyl]methanesulfonamide] | – | IC50s in the range of about 0.001 μM to about 30 μM: do not have IC50s in the range of about 0.001 μM to about 30 μM
12 | N#Cc1ccc(C2CCN(C(=O)c3ccc(Cl)c(NS(=O)(=O)c4ccccc4F)c3)CC2)cc1 [Example 191, N-[2-chloro-5-[4-(4-cyanophenyl)piperidine-1-carbonyl]phenyl]-2-fluorobenzenesulfonamide] | 63 | –
13 | Cc1ccc(C(=O)N2CCC(c3ccc(C#N)cc3)CC2)cc1NS(=O)(=O)c1ccc(Cl)nc1 [Example 90, 6-chloro-N-[5-[4-(4-cyanophenyl)piperidine-1-carbonyl]-2-methyl-phenyl]pyridine-3-sulfonamide] | 79 | –
14 | Cc1ccc(C(=O)N2CCC(c3ccc(CCC(=O)N(C)C)cc3)CC2)cc1NS(C)(=O)=O [Example 249, 3-[4-[1-(3-methanesulfonamido-4-methylbenzoyl)piperidin-4-yl]phenyl]-N,N-dimethylpropanamide] | – | IC50 (unit inferred): 0.515 µM
15 | Cc1cc(C)c(C(=O)N2CCC(c3ccc(C#N)cc3)CC2)cc1NS(=O)(=O)C1CC1 [Example 116, N-[5-[4-(4-cyanophenyl)piperidine-1-carbonyl]-2,4-dimethyl-phenyl]cyclopropanesulfonamide] | 92 | –
16 | Cc1ccc(C(=O)N2CCC(c3cccc(F)c3)CC2)cc1NS(C)(=O)=O [N-[5-[4-(3-fluorophenyl)piperidine-1-carbonyl]-2-methylphenyl]methanesulfonamide] | – | IC50s in the range of about 0.001 μM to about 30 μM: do not have IC50s in the range of about 0.001 μM to about 30 μM
17 | Cc1ccc(C(=O)N2CCC(c3ccc(C#N)cc3)CC2)cc1NS(=O)(=O)c1cccc(C(=O)N(C)C)c1 [Example 82, 3-[[5-[4-(4-cyanophenyl)piperidine-1-carbonyl]-2-methyl-phenyl]sulfamoyl]-N,N-dimethyl-benzamide] | 93 | –
18 | CC(=O)NCCCS(=O)(=O)Nc1cc(C(=O)N2CCC(c3ccc(C#N)cc3)CC2)ccc1C [Example 136, N-[3-[[5-[4-(4-cyanophenyl)piperidine-1-carbonyl]-2-methyl-phenyl]sulfamoyl]propyl]acetamide] | 94 | –
19 | CC(=O)NCc1ccc(C2CCN(C(=O)c3ccc(C)c(NS(C)(=O)=O)c3)CC2)cc1 [Example 164, N-[[4-[1-(3-methanesulfonamido-4-methylbenzoyl)piperidin-4-yl]phenyl]methyl]acetamide] | 83 | –
20 | Cc1ccc(C(=O)N2CCC(c3ccc(C#N)cc3)CC2)cc1NS(=O)(=O)c1c(C)nn(C)c1Cl [Example 100, 5-chloro-N-[5-[4-(4-cyanophenyl)piperidine-1-carbonyl]-2-methyl-phenyl]-1,3-dimethyl-pyrazole-4-sulfonamide] | 90 | –
21 | Cc1ccc(C(=O)N2CCC(c3ccc(C#N)cc3)CC2)cc1NS(=O)(=O)c1c(C)nn(C)c1C [Example 152, N-[5-[4-(4-cyanophenyl)piperidine-1-carbonyl]-2-methyl-phenyl]-1,3,5-trimethyl-pyrazole-4-sulfonamide] | 87 | –
22 | Cc1ccc(C(=O)N2CCC(c3ccc(C#N)c(Cl)c3)CC2)cc1NS(C)(=O)=O [Example 218, N-[5-[4-(3-chloro-4-cyanophenyl)piperidine-1-carbonyl]-2-methylphenyl]methane-sulfonamide] | 67 | –
23 | Cc1ccc(NS(=O)(=O)C2CC2)cc1C(=O)N1CCC(c2ccc(C#N)cc2)CC1 [Example 40, N-[3-[4-(4-cyanophenyl)piperidine-1-carbonyl]-4-methyl-phenyl]cyclopropanesulfonamide] | 89 | –
24 | N#Cc1ccc(C2CCN(C(=O)c3cccc(NS(=O)(=O)Cc4ccccc4)c3)CC2)cc1 [Example 66, N-[3-[4-(4-cyanophenyl)piperidine-1-carbonyl]phenyl]-1-phenyl-methanesulfonamide] | 80 | –
25 | Cc1ccc(C(=O)N2CCC(c3ccc(C(F)(F)F)cc3)CC2)cc1NS(=O)(=O)C1CCS(=O)(=O)C1 (stereo not shown) [Example 177, N-[2-methyl-5-[4-[4-(trifluoromethyl)phenyl]piperidine-1-carbonyl]phenyl]-1,1-dioxothiolane-3-sulfonamide] | 91 | –

— US20090105305A1, “Therapeutic Agents - 550” (AstraZeneca AB, priority 2006, published 2009)
